Test results from the NIST ThermoML archive (doi:10.1021/je100148h).
Where “and” joins values, the source holds several entries; their conditions need not be identical. Equal entries are not always repeated.

Conditions: Burnett expansion method

[Ar] [argon]
Gas
Conditions | mass density
318.75 K, 217.45 kPa | 3.2819 kg/m3 and 3.2809 kg/m3
318.75 K, 299.59 kPa | 4.5227 kg/m3 and 4.5217 kg/m3
318.75 K, 412.69 kPa | 6.2318 kg/m3 and 6.2327 kg/m3
318.75 K, 568.39 kPa | 8.5885 kg/m3 and 8.5891 kg/m3
318.75 K, 782.65 kPa | 11.8364 kg/m3 and 11.8363 kg/m3
318.75 K, 1077.3 kPa | 16.3128 kg/m3 and 16.3112 kg/m3
318.75 K, 2800.7 kPa | 42.6996 kg/m3 and 42.685 kg/m3
318.75 K, 3845.5 kPa | 58.8449 kg/m3 and 58.8199 kg/m3
318.75 K, 5275.1 kPa | 81.0918 kg/m3 and 81.0507 kg/m3
318.75 K, 7231.5 kPa | 111.747 kg/m3 and 111.681 kg/m3
318.76 K, 157.82 kPa | 2.3805 kg/m3 and 2.3815 kg/m3
318.76 K, 1482.3 kPa | 22.4815 kg/m3 and 22.4774 kg/m3
318.76 K, 2038.2 kPa | 30.9829 kg/m3 and 30.9748 kg/m3

O=C=O [carbon dioxide]
343.13 K, Fluid (supercritical or subcritical phases)
Conditions | mass density
214.49 kPa | 3.3311 kg/m3 and 3.3345 kg/m3
295.01 kPa | 4.5929 kg/m3 and 4.5951 kg/m3
405.34 kPa | 6.3329 kg/m3 and 6.3325 kg/m3
556.21 kPa | 8.7319 kg/m3 and 8.7265 kg/m3
761.77 kPa | 12.0399 kg/m3 and 12.0258 kg/m3
1040.8 kPa | 16.6004 kg/m3 and 16.5719 kg/m3
1417 kPa | 22.8886 kg/m3 and 22.8367 kg/m3
1919.8 kPa | 31.5581 kg/m3 and 31.4693 kg/m3
2584.2 kPa | 43.5107 kg/m3 and 43.3646 kg/m3
3447.3 kPa | 59.9881 kg/m3 and 59.7539 kg/m3
4543 kPa | 82.704 kg/m3 and 82.3364 kg/m3
5888.2 kPa | 114.017 kg/m3 and 113.448 kg/m3
7469.2 kPa | 157.178 kg/m3 and 156.31 kg/m3
